Laboratory results published in patent US7943382B2, “Method for inspecting fat-soluble vitamin and/or fat-soluble food factor by saliva analysis” (Mitsubishi Chemical Medience Corporation, priority 2004, dated 2011).

What was measured:
[1] = Transition of the CoQ10 level in parotid saliva depending on ingestion states of Supplement N; assay type: in vivo, human
Method: For the ingestion test of CoQ10, commercial supplement S containing CoQ10 of 50 mg per one tablet and commercial supplement N containing 30 mg per one tablet were used. 10 volunteers in the group S and 10 volunteers in the group N were made to ingest orally the supplement s and the supplement N respectively. For ingestion of supplement S, each volunteer was made to ingest orally two tablets at 9:00 every morning continuously for a week, and for the next week, made to ingest orally double amount, four tablets at 9:00 every morning continuously, and then stopped from ingestion for two weeks. For ingestion of supplement N, each volunteer was made to ingest orally three tablets at 9:00 every morning continuously for a week, and for the next week, made to ingest orally double amount, six tablets at 9:00 every morning continuously, and then stopped from ingestion for two weeks. As specimens in both the groups S and N, parotid saliva and heparinized plasma were collected from PM 4:00 to 5:00, total four times, that is, before and one week after ingestion, at double dose ingestion, and two weeks after discontinuation of ingestion. The volunteer had the mouth rinsed with water prior to collection, kept quiet on a chair for 5 minutes, while the volunteer accumulated saliva in the oral cavity and discharged to initialize the oral cavity, followed by collecting parotid saliva. For collection of parotid saliva, the Saliva-sampler is inserted between the teeth and the cheek near the open of the parotid gland, the volunteer sat quiet on a chair, during which saliva was collected, while the volunteer swallowed saliva, which was secreted from the sublingual gland and the submandibular gland and accumulated in the mandible, to prevent contamination with the saliva from the sublingual gland and the submandibular gland. For analysis of CoQ10 in saliva collected from the parotid gland, the Saliva-sampler with absorbed saliva was transferred to the peculiar tube holding 1 ml of 50% ethanol, to which […] of ethanol was added to have a final concentration of […]. […]

[2] = CoQ10 level in parotid saliva of non-CoQ10 supplement-ingesting volunteers; assay type: in vivo, human; conditions: 55 non-CoQ10 supplement-ingesting volunteers; 2SD 13.5 ng/ml
Text: Therefore, a standard that can assess an individually suitable intake is required. It can be easily understood from FIG. 7 that the mean level and SD (standard deviation) of CoQ10 in parotid saliva of non-CoQ10 supplement-ingesting volunteers is useful as an example of the standard. A case that a volunteer, who is taking the CoQ10 supplement at an adequate time after meals, ingests it to increase the blood level up to a limit of the CoQ10 level of a non-ingesting volunteer, will be taken as an example for explanation. If a CoQ10 level in parotid saliva is far over the mean value +2SD, the intake is reduced, and if it is between the mean value −2SD and the mean value +2SD, the intake is increased, and the CoQ10 level is repeated inspected in saliva collected again at later dates, allowing the object to be achieved. In addition, the mean level and 2SD in FIG. 7 are obtained from the CoQ10 levels in parotid saliva of the 55 non-CoQ10 supplement-ingesting volunteers, the mean level is 17.0 ng/ml and the 2SD is 13.5 ng/ml.

COC1=C(OC)C(=O)C(C/C=C(\C)CC/C=C(\C)CC/C=C(\C)CC/C=C(\C)CC/C=C(\C)CC/C=C(\C)CC/C=C(\C)CC/C=C(\C)CC/C=C(\C)CCC=C(C)C)=C(C)C1=O [CoQ10, Ubidecarenone]
transition of the CoQ10 level in parotid saliva ([1]; 3 tablets/day one week, 6 tablets/day next week, then two weeks discontinuation, other 7 volunteers, FIG. 7): increased by ingestion of the supplement with CoQ10, furthermore increased by more ingestion, and decreased after discontinuation of ingestion | transition of the CoQ10 level in parotid saliva ([1]; volunteer N9, ingestion approximately three hours after breakfast): small increase | transition of the CoQ10 level in parotid saliva ([1]; volunteers N1 and N5 (no or often lacking breakfast), increased amount of the supplement): hardly increased | mean CoQ10 level in parotid saliva [2]: 17.0 ng/mL
